# Patent US6126909A, “Process and apparatus for the production of BI-212 and a use thereof” (Arch Development Corporation, priority 1999, dated 2000)
# Entries after “also recorded” stand apart in the source; their conditions may differ.
# Legend:
# [1] = test system: NIH:OVCAR-3 cells; assay: In vitro irradiation survival (clonogenic), monolayer; assay type: cell-based, human; details: OVCAR-3 monolayer
# Protocol: In vitro studies were carried out using three well known cell lines, the cells from which were exposed to radiation from: (1) an X-ray source; (2) P-32 chromic phosphate; and (3) Bi-212 chloride. The three cell lines that were used are V-79, which is a Chinese hamster lung fibroblast, Ehrlich-Lettre Ascites carcinoma (ATCC CCL 77), which is an ascites producing -tumor, and NIH:OVCAR-3 (ATCC HTB 161), which is a human ovarian adenocarcinoma. These well known cell lines are predictive of what happens in vivo. The cells were grown as monolayers and into spheroid formations and subsequently irradiated, as described herein.
# The V-79 cells were maintained under exponential growth conditions in minimal essential medium (MEM) supplemented with 10 percent fetal bovine serum. The Ehrlich-Lettre Ascites carcinoma cells were maintained in 90 percent NCTC 109 supplemented with 10 percent fetal bovine serum. The NIH:OVCAR-3 cells were maintained in RPMI 1640 and 10 percent fetal bovine serum.
# Cells from each of the cell lines were irradiated by subjecting the cells to X-ray radiation, P-32, and Bi-212. The X-ray source that was used is a General Electric 250 kvp Maxitron, 26 […] (mA) (HVL 1.5 mm Cu) operated at a dose rate of 1.11 Greys per minute (Gy/min). The cells, in both monolayer and spheroid form were exposed at room temperature and then immediately plated for survival.
# Cells in both monolayer and spheroid were exposed to P-32 chromic phosphate. The radiation dose to each sample was calculated as: […]
# After exposure, the cells were washed in phosphate-buffered saline (PBS) and immediately plated for survival.
# The cell lines were also irradiated using Bi-212. Bismuth-212 was eluted from a generator as described in the aforementioned patent to Atcher et al., which was a cation-exchange column supporting Ra-224, with 1 ml of 0.15 N HI, and the generator was purged with 2 ml of distilled deionized water. […] The filter was purged with 1 ml of distilled deionized water, and the radioactivity was assayed using a calibrated 3×3-in. […]
# Cells were exposed over a period of four hours. The dose (D) per microCurie was calculated and corrected for decay as follows: [formula] where V=volume in milliliters, and […]
# Following plating, survival measurements were taken for each of the irradiated cell samples. […] The plates were then stained with crystal violet and colonies greater than 50 cells were scored. The surviving fraction was then determined.
# Intrinsic radiosensitivity (Do) was calculated from the survival curves. […] Relative biological effectiveness (RBE) was determined as the ratio of the absorbed dose of X-ray to that of alpha radiation to produce the same degree of biological effect.
# [2] = Retention after intraperitoneal injection in mice; assay type: in vivo, mouse
# [3] = test system: Ehrlich-Lettre Ascites carcinoma cells; assay: Efficacy study in mice inoculated with carcinoma cells; assay type: in vivo, mouse; details: 100 μCi i.p.
# Protocol: (§1) In vivo studies were conducted to determine the distribution of Bi-212 produced using the above-noted process and to compare the Bi-212 distribution to the distribution of Pb-212 ferrous hydroxide in colloidal form. The in vivo studies were conducted using white, female New Zealand rabbits weighing about 4.5 kilograms ([…]) each. Studies were also conducted using rabbits to determine the toxicity levels, e.g., the maximum tolerated dose. Efficacy studies were conducted using 25 gram (gm) female Swiss-Webster mice inoculated with Ehrlich-Lettre Ascites carcinoma cells.
# Efficacy studies were conducted using groups of five 25 gm female Swiss-Webster mice that were intraperitoneally inoculated with 10^6 Ehrlich-Lettre Ascites carcinoma cells. The mice were subsequently instilled with 100 μCi of Bi-212 in up to 1 cc normal saline 48 hours after inoculation with the Ehrlich-Lettre Ascites carcinoma cells. The mice were sacrificed at one-half hour, one hour and 3 hours after instillation with the Bi-212 solution. Control groups were inoculated with the Ehrlich-Lettre Ascites carcinoma cells only.
# [4] = Distribution in peritoneal cavity (imaging and necropsy); assay type: in vivo, rabbit; details: rabbits
# Protocol: as §1
# Groups of rabbits were instilled with a varying amounts (correlating to varying activities) of Bi-212 that were prepared in accordance with the before-described process, neutralized to pH values of between 5.0 and 7.4, and had added thereto a quantity of normal saline to make a 200 cc sample. To compare the distribution of Bi-212, Pb-212 ferrous hydroxide was prepared in accordance with known methods. Rotmensch et al., Gynecol. Oncol., 35:297-300 (1989). […]
# Of the groups of rabbits instilled with the Bi-212 solution, a rabbit was imaged and necropsied at each of one-half hour, one hour and three hours after instillation. The percent injected activity (%IA) in each organ was measured to determine the distribution of the Bi-212(Table 6). […] The percent activity remaining in the peritoneal fluid was measured.
smiles,measurement,setting,value
"[212Bi] [Bi-212, bismuth-212]",D0 (intrinsic radiosensitivity),[1]; dose increment reducing survival to 37 percent,0.75 Gy
same,Relative biological effectiveness (RBE),[1]; relative to X-ray,3.19
same,Carcass,[2]; 1 min,88.3 % IA
same,Urine,[2]; 1 min,0.025 % IA
same,Carcass,[2]; 10 min,87.3 % IA
same,Urine,[2]; 10 min,2.2 % IA
same,Carcass,[2]; 16 min,66.8 % IA
same,Stool,[2]; 16 min,0.20 % IA
same,Urine,[2]; 16 min,2.9 % IA
same,Carcass,[2]; 30 min,79.1 % IA
same,Stool,[2]; 30 min,0.53 % IA
same,Urine,[2]; 30 min,6.9 % IA
same,Carcass,[2]; 61 min,68.5 % IA
same,Stool,[2]; 61 min,1.3 % IA
same,Urine,[2]; 61 min,15.9 % IA
same,Carcass,[2]; 120 min,62.9 % IA
same,Stool,[2]; 120 min,6.7 % IA
same,Urine,[2]; 120 min,19.5 % IA
same,Stool,[2]; 180 min,8.3 % IA
same,Urine,[2]; 180 min,24.8 % IA
same,Carcass,[2]; 180 min (3 hours),61.4 % IA
same,Median survival time,"[3]; 48 hours after 10^6 cells, after treatment",82 days
same,Cure with no evidence of disease,[3]; 3 months later,40%
same,Distribution in peritoneal cavity/fluid,[4]; intraperitoneal instillation,even distribution within the peritoneal fluid; also recorded: relatively even
same,Clumping / localized activity in peritoneal cavity,[4]; imaging up to 3 hours or necropsy,"no clumping; i.e., no localized activity in the peritoneal cavity up to 3 hours after instillation"
